Measured values as given in patent publication US7754228B2, “Cytotoxic T-cell epitopes from Chlamydia” (Novartis Vaccines and Diagnostics, Srl, priority 2002, dated 2010).
Entries after “also recorded” stand apart in the source; their conditions may differ. Like-named read-outs stand apart in the source and are kept apart here.

Tested on: HLA A2
Type: binding, human
Conditions: for binding to HLA A2 (in words): in vitro binding assay
[1] = 10 μM peptide, RMA-S/A2 cells, peptide and only anti-mouse secondary antibody, FACS mean
[2] = 10 μM peptide, RMA-S/A2 cells, peptide, anti-A2 Mab BB7.2 and secondary antibody, FACS mean
[3] = 100 μM peptide, RMA-S/A2 cells, peptide and only anti-mouse secondary antibody, FACS mean
[4] = 100 μM peptide, RMA-S/A2 cells, peptide, anti-A2 Mab BB7.2 and secondary antibody, FACS mean
[5] = 1 μM peptide, RMA-S/A2 cells, peptide and only anti-mouse secondary antibody, FACS mean
[6] = 1 μM peptide, RMA-S/A2 cells, peptide, anti-A2 Mab BB7.2 and secondary antibody, FACS mean

Row | Sequence | High - B | Δ Mean | Mean 1 [1] | Mean 2 [2] | Mean 1 | Mean 2 | Mean 1 [3] | Mean 2 [4] | binding to HLA A2 (in words) (RMA-S/A2 cells) | Mean 1 [5] | Mean 2 [6] | ΔMean at high concentrations of peptide (in words) (high peptide concentrations, non-homogeneous fluorescent signal, most likely non-specific effects)
1 | YVVGFIIFL [CH44] | 31 | 191 | 150 | 341 |  |  |  |  |  |  |  | 
2 | YLIVFVLTI [CH59] | −37 | 123 |  |  | 150 | 273 |  |  |  |  |  | 
3 | NLAEQVTAL [CH43] |  | 286 |  |  |  |  | 153 | 439 | bind to HLA A2; also recorded: positive in the binding assay |  |  | 
4 | ALWGHNVLL (listed as Chlamydia pneumoniae) [CH55] | 98 | 258 |  |  |  |  | 153 | 411 | bind to HLA A2; also recorded: positive in the binding assay |  |  | 
5 | LLLIFNNYL [CH36] | −16 | 138 |  |  |  |  |  |  | do not seem to bind | 163 | 301 | 
6 | IALLVIFFV [CH18] | 0 | 230 | 198 | 428 |  |  |  |  | do not seem to bind |  |  | 
7 | ILLNEVPYV [CH2] | 133 | 372 | 264 | 636 |  |  |  |  | bind to HLA A2 |  |  | 
8 | SLLEEHPVV (listed as Chlamydia pneumoniae) [CH52] | 89 | 249 |  |  |  |  | 147 | 396 | bind to HLA A2; also recorded: positive in the binding assay |  |  | 
9 | KLLAFPAFA [CH40] | 96 | 341 |  |  |  |  | 214 | 555 | bind to HLA A2 |  |  | 
10 | SILELLQFV [CH5] | 71 | 298 | 179 | 477 |  |  |  |  | bind to HLA A2 |  |  | 
11 | LLLTLGYAV (listed as Chlamydia pneumoniae) [CH19] | 0 | 240 |  |  |  |  | 196 | 436 | do not seem to bind |  |  | 
12 | ALWKENQAL (listed as Chlamydia pneumoniae) [CH54] | 91 | 251 |  |  |  |  | 140 |  | bind to HLA A2; also recorded: positive in the binding assay |  |  | 
13 | QLLESLAPL [CH4] | 58 | 304 |  |  |  |  | 212 | 516 | bind to HLA A2 |  |  | 
14 | YLLDFRWPL [CH37] | 84 | 238 | 164 | 402 |  |  |  |  | bind to HLA A2 |  |  | 
15 | NLWSHYTDL (listed as Chlamydia pneumoniae) [CH53] | 48 | 209 |  |  |  |  | 141 | 350 | bind to HLA A2 |  |  | 
16 | NLSISVFLL [CH46] | 12 | 172 |  |  |  |  | 131 | 303 |  |  |  | 
17 | NLAGGILSV (listed as Chlamydia pneumoniae) [CH56] | 80 | 240 |  |  |  |  | 143 | 383 | bind to HLA A2; also recorded: positive in the binding assay |  |  | 
18 | VLFLLIRSV [CH61] | −37 | 123 |  |  |  |  |  |  |  | 135 | 258 | 
19 | QLLDEGKEL [CH1] | 37 | 283 |  |  |  |  | 206 | 489 | bind to HLA A2 |  |  | 

Row | Sequence | High - B | Δ Mean | Mean 1 [1] | Mean 2 [2] | Mean 1 | Mean 2 | Mean 1 [3] | Mean 2 [4] | binding to HLA A2 (in words) (RMA-S/A2 cells) | Mean 1 [5] | Mean 2 [6] | ΔMean at high concentrations of peptide (in words) (high peptide concentrations, non-homogeneous fluorescent signal, most likely non-specific effects)
20 | NLLKRWQFV [CH38] | 73 | 227 |  |  |  |  | 170 | 397 | bind to HLA A2 |  |  | 
21 | RLLEIIWGV [CH28] | 78 | 232 | 158 | 390 |  |  |  |  | bind to HLA A2 |  |  | 
22 | ALMLLNNYV (listed as Chlamydia pneumoniae) [CH20] | 138 | 384 |  |  |  |  | 194 | 578 | bind to HLA A2 |  |  | 
23 | LLMLAISLV [CH33] | 0 | 154 |  |  |  |  |  |  | do not seem to bind | 164 | 318 | 
24 | KLWEWLGYL [CH32] | 63 | 217 | 161 | 378 |  |  |  |  | bind to HLA A2 |  |  | 
25 | FLQRGESFV [CH30] | 89 | 243 |  |  |  |  | 155 | 398 | bind to HLA A2 |  |  | 
26 | ILQEAEQMV [CH17] | 140 | 386 |  |  |  |  | 185 | 571 | bind to HLA A2 |  |  | 
27 | WLFDLRFSV (listed as Chlamydia pneumoniae) [CH22] | 73 | 227 | 163 | 390 |  |  |  |  | bind to HLA A2 |  |  | 
28 | NLSRQAFFA (listed as Chlamydia pneumoniae) [CH51] | 19 | 179 |  |  |  |  | 132 | 311 |  |  |  | 
29 | FVSKFWFSL [CH57] | −17 |  |  |  |  |  |  |  |  | 127 | 270 | 
30 | SLCAQSSYV (listed as Chlamydia pneumoniae) [CH50] | 91 | 251 |  |  |  |  | 130 | 381 | bind to HLA A2; also recorded: positive in the binding assay |  |  | 
31 | VIQAFGDFV [CH47] | 17 | 177 | 125 | 302 |  |  |  |  |  |  |  | 
32 | ILSFLPWLV [CH35] | 86 | 240 | 171 | 411 |  |  |  |  | bind to HLA A2 |  |  | 
33 | VLNLFFSAL (listed as Chlamydia pneumoniae) [CH3] | 0 | 224 |  |  |  |  |  |  |  | 195 | 419 | Very low ΔMean values
34 | VMLIFEKKV [CH14] | 12 | 258 |  |  |  |  | 197 | 455 | do not seem to bind |  |  | 
35 | YLTSYSPYV (listed as Chlamydia pneumoniae) [CH15] | 76 | 322 |  |  |  |  | 235 | 557 | bind to HLA A2 |  |  | 
36 | FLFQLGMQI [CH62] | 19 | 179 |  |  |  |  | 126 | 305 |  |  |  | 
37 | KMSHFQQAL [CH49] | 23 | 183 |  |  |  |  | 134 | 317 |  |  |  | 
38 | WMMGVVLMI [CH45] | 51 | 211 | 147 | 358 |  |  |  |  | bind to HLA A2 |  |  | 
